For one assay, the system named is Plasmodium falciparum. Put plainly: Antimalarial activity against multidrug-resistant Plasmodium falciparum K1 by microculture radioisotope assay. It counts as functional, organism-based.
In another assay the test system is NCI-H187. Put plainly: Cytotoxicity against human NCI-H187 cells. It counts as functional, cell-based.
In another assay the test system is KB. Description: Cytotoxicity against human KB cells. It counts as functional, cell-based.
A short description of assay [1]: (§1) Cytotoxicity against human BC cells. It counts as functional, cell-based.
Assay [2] concerns Mycobacterium tuberculosis. Description: Antimycobacterial activity against Mycobacterium tuberculosis H37Ra by Alamar blue assay. It counts as functional. (In general: Resazurin is reduced to fluorescent resorufin, in cell work by metabolically active cells.)
For the next assay, the system named is BC. The assay is described as §1. Format: functional, cell-based.

In brackets after ≈: the same amount, converted by molar mass. Activity calls are given as the source filed them.

For orientation: IC50 means the midpoint of a concentration-inhibition curve. Read a low IC50 as greater potency in that assay. As a reminder, the MIC is the smallest concentration in the dilution series that meets the test's criterion for growth inhibition. Low values mean inhibition by little substance, high ones a need for much substance.

`CC(C)=CCc1cc([C@@H]2CC(=O)c3c(O)cc(O)c(CC=C(C)C)c3O2)ccc1O` [LESPEDEZAFLAVANONE B]: the IC50 with Plasmodium falciparum was found to be 3.7 µg/mL (≈ 9.06 µM); in the assay with NCI-H187 it was 7.6 µg/mL (≈ 18.6 µM); with KB, 7.6 µg/mL (≈ 18.6 µM); in assay [1] it was 7.6 µg/mL (≈ 18.6 µM). The MIC in assay [2] amounted to 100 µg/mL (≈ 245 µM).

On to `COc1cc2c(cc1OC)[C@]13C[C@@H](OC)[C@H](O)C=C1CCN3C(=O)C2=O`, for which the outcome (with Plasmodium falciparum; in the assay with NCI-H187; with KB; in the assay on BC; in assay [2]) was inactive.

In turn, `CC(C)=CCc1cc([C@@H]2CC(=O)c3c(O)cc(O)cc3O2)cc(CC=C(C)C)c1O` [ABYSSINONE V] gave an IC50 in the assay on Plasmodium falciparum of 7 µg/mL (≈ 17.1 µM). The minimum inhibitory concentration (MIC) in assay [2] was determined as 100 µg/mL (≈ 245 µM).

In the case of `COc1c(CC=C(C)C)c(O)cc2c1[C@@H]1Oc3c(ccc(O)c3CC=C(C)C)[C@@H]1CO2`, the IC50 (in the assay on NCI-H187; with KB; in assay [1]) was 7.6 µg/mL (≈ 18 µM) in each case. In assay [2], this compound had an MIC of 50 µg/mL (≈ 118 µM).

Take `COc1ccc2c(c1)OC[C@@]1(O)c3ccc4c(c3O[C@@H]21)C[C@H](O)C(C)(C)O4` [ERYVARIN A]: the lowest concentration to inhibit growth in assay [2] (MIC) was 100 µg/mL (≈ 270 µM).

Regarding `CO[C@@H]1C[C@@]23C(=C[C@H]1O)CCN2C(=O)C(=O)c1cc2c(cc13)OCO2`, the result (with Plasmodium falciparum; in the assay with NCI-H187; with KB; in the assay with BC; in assay [2]) was inactive.
